Data as given in patent US20100298141A1, “SUBSTITUTED PYRIDINE N-OXIDE HERBICIDES” (E. I. DU PONT DE NEMOURS AND COMPANY, priority 2007, published 2010).

Columns and labels:
yellow nutsedge = assay: Test C pre-/postemergence test; type: in vivo, Cyperus esculentus; conditions: for Plant response rating, Nutsedge, Yellow: scale 0 to 100, 0 no effect, 100 complete control
Procedure, shortened: (§1)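 Seeds were planted and treated preemergence with test chemical in a non-phytotoxic solvent mixture containing surfactant. Postemergence applications of the same formulation went onto plants 2 to 18 cm tall (1- to 4-leaf stage). A dash marks no test result.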

corn = assay: Test C pre-/postemergence test; type: in vivo, Zea mays; conditions: for Plant response rating, Corn: scale 0 to 100, 0 no effect, 100 complete control
Procedure, shortened: as §1

blackgrass = assay: Test C pre-/postemergence test; type: in vivo, Alopecurus myosuroides; conditions: for Plant response rating, Blackgrass: scale 0 to 100, 0 no effect, 100 complete control
Procedure, shortened: as §1

pigweed = assay: Test C pre-/postemergence test; type: in vivo, Amaranthus retroflexus; conditions: for Plant response rating, Pigweed: scale 0 to 100, 0 no effect, 100 complete control
Procedure, shortened: as §1

barnyardgrass = assay: Test A pre-/postemergence greenhouse test; type: in vivo, Echinochloa crus-galli; conditions: for Barnyardgrass plant response rating: 0 to 100 scale
Procedure, shortened: (§2)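 Visual injury ratings against untreated controls, taken roughly ten days after treatment in greenhouse. Plants were sprayed postemergence at one- to two-leaf stage (2–10 cm tall); at the same time, seeded loam/sand soil received a directed preemergence spray. Formulation: non-phytotoxic solvent mixture with surfactant.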

morningglory [1] = assay: Test A pre-/postemergence greenhouse test; type: in vivo, Ipomoea spp.; conditions: for Morningglory plant response rating: 0 to 100 scale
Procedure, shortened: as §2

cocklebur = assay: Test C pre-/postemergence test; type: in vivo, Xanthium strumarium; conditions: for Plant response rating, Cocklebur: scale 0 to 100, 0 no effect, 100 complete control
Procedure, shortened: as §1

wheat = assay: Test C pre-/postemergence test; type: in vivo, Triticum aestivum; conditions: for Wheat plant response rating: preemergence, scale 0 (no effect) to 100 (complete control); for Plant response rating, Wheat: scale 0 to 100, 0 no effect, 100 complete control
Procedure, shortened: as §1

woolly cupgrass = assay: Test C pre-/postemergence test; type: in vivo, Eriochloa villosa; conditions: for Plant response rating, Cupgrass, Woolly: scale 0 to 100, 0 no effect, 100 complete control
Procedure, shortened: as §1

crabgrass = assay: Test C pre-/postemergence test; type: in vivo, Digitaria sanguinalis; conditions: for Plant response rating, Crabgrass, Large: scale 0 to 100, 0 no effect, 100 complete control
Procedure, shortened: as §1

morningglory [2] = assay: Test C pre-/postemergence test; type: in vivo, Ipomoea coccinea; conditions: for Plant response rating, Morningglory: Postemergence, scale 0 to 100, 0 no effect, 100 complete control
Procedure, shortened: as §1

Italian ryegrass = assay: Test C pre-/postemergence test; type: in vivo, Lolium multiflorum; conditions: for Ryegrass, Italian plant response rating: preemergence, scale 0 (no effect) to 100 (complete control); for Plant response rating, Ryegrass, Italian: scale 0 to 100, 0 no effect, 100 complete control
Procedure, shortened: as §1

kochia = assay: Test C pre-/postemergence test; type: in vivo, Kochia scoparia; conditions: for Plant response rating, Kochia: scale 0 to 100, 0 no effect, 100 complete control
Procedure, shortened: as §1

[3] = tested on: common (oilseed) sunflower; assay: Test C pre-/postemergence test; type: in vivo, Helianthus annuus; conditions: for Sunflower plant response rating: preemergence, scale 0 (no effect) to 100 (complete control)
Procedure, shortened: as §1

soybean = assay: Test C pre-/postemergence test; type: in vivo, Glycine max; conditions: for Plant response rating, Soybean: scale 0 to 100, 0 no effect, 100 complete control
Procedure, shortened: as §1

green foxtail = assay: Test C pre-/postemergence test; type: in vivo, Setaria viridis; conditions: for Plant response rating, Foxtail, Green: scale 0 to 100, 0 no effect, 100 complete control
Procedure, shortened: as §1

[4] = 31 g ai/ha, Preemergence, scale 0 to 100
[5] = 62 g ai/ha, preemergence, scale 0 (no effect) to 100 (complete control)
[6] = preemergence, 125 g ai/ha, scale 0 (no effect) to 100 (complete control)
[7] = Postemergence, 125 g ai/ha, 0 is no effect, 100 is complete control
[8] = Postemergence, 500 g ai/ha, 0 is no effect, 100 is complete control
[9] = Preemergence, 125 g ai/ha, 0 no effect, 100 complete control
[10] = Preemergence, 500 g ai/ha, 0 to 100 scale where 0 is no effect and 100 is complete control

Cc1cc[n+]([O-])c(S(=O)(=O)Cc2c(C(F)(F)F)nn(C)c2OC(F)F)c1 [Compound 2]
Nutsedge, Yellow plant response rating (yellow nutsedge; [4]): 0
Nutsedge, Yellow plant response rating (yellow nutsedge; [5]): 95
Plant response rating (0 to 100), Nutsedge, Yellow (yellow nutsedge; Postemergence, 31 g ai/ha): 0
Plant response rating, Nutsedge, Yellow (yellow nutsedge; Postemergence, 62 g ai/ha): 0
Plant response rating, Nutsedge, Yellow (yellow nutsedge; Postemergence, 125 g ai/ha): 0
Plant response rating, Nutsedge, Yellow (yellow nutsedge; Postemergence, 250 g ai/ha): 0
Plant response rating (0 to 100), Nutsedge, Yellow (yellow nutsedge; Preemergence, 250 g ai/ha): 100
Nutsedge, Yellow plant response rating (yellow nutsedge; [6]): 95
Corn plant response rating (corn; [4]): 0
Corn plant response rating (corn; [5]): 5
Plant response rating (0 to 100), Corn (corn; Postemergence, 31 g ai/ha): 0
Plant response rating, Corn (corn; Postemergence, 62 g ai/ha): 0
Plant response rating, Corn (corn; Postemergence, 125 g ai/ha): 0
Plant response rating, Corn (corn; Postemergence, 250 g ai/ha): 0
Plant response rating (0 to 100), Corn (corn; Preemergence, 250 g ai/ha): 85
Corn plant response rating (corn; [6]): 45
Blackgrass plant response rating (blackgrass; [4]): 60
Blackgrass plant response rating (blackgrass; [5]): 80
Plant response rating (0 to 100), Blackgrass (blackgrass; Postemergence, 31 g ai/ha): 0
Plant response rating, Blackgrass (blackgrass; Postemergence, 62 g ai/ha): 0
Plant response rating, Blackgrass (blackgrass; Postemergence, 125 g ai/ha): 0
Plant response rating, Blackgrass (blackgrass; Postemergence, 250 g ai/ha): 0
Plant response rating (0 to 100), Blackgrass (blackgrass; Preemergence, 250 g ai/ha): 100
Blackgrass plant response rating (blackgrass; [6]): 80
Pigweed plant response rating (pigweed; [4]): 100
Pigweed plant response rating (pigweed; [5]): 100
Plant response rating (0 to 100), Pigweed (pigweed; Postemergence, 31 g ai/ha): 0
Plant response rating (0 to 100), Pigweed (pigweed; Postemergence, 62 g ai/ha): 0
Plant response rating, Pigweed (pigweed; Postemergence, 125 g ai/ha): 0
Plant response rating, Pigweed (pigweed; Postemergence, 250 g ai/ha): 0
Plant response rating (0 to 100), Pigweed (pigweed; Preemergence, 250 g ai/ha): 100
Pigweed plant response rating (pigweed; [6]): 100
Barnyardgrass plant response rating (barnyardgrass; [7]): 70
Barnyardgrass plant response rating (barnyardgrass; [8]): 80
Barnyardgrass plant response rating (barnyardgrass; [9]): 90
Plant response rating, Barnyardgrass (barnyardgrass; [10]): 100
Morningglory plant response rating (morningglory [1]; [7]): 60
Morningglory plant response rating (morningglory [1]; [8]): 100
Morningglory plant response rating (morningglory [1]; [9]): 80
Plant response rating, Morningglory (morningglory [1]; [10]): 90
Cocklebur plant response rating (cocklebur; [4]): 0
Cocklebur plant response rating (cocklebur; [5]): 0
Plant response rating (0 to 100), Cocklebur (cocklebur; Postemergence, 31 g ai/ha): 0
Plant response rating, Cocklebur (cocklebur; Postemergence, 62 g ai/ha): 0
Plant response rating, Cocklebur (cocklebur; Postemergence, 125 g ai/ha): 0
Plant response rating, Cocklebur (cocklebur; Postemergence, 250 g ai/ha): 10
Plant response rating (0 to 100), Cocklebur (cocklebur; Preemergence, 250 g ai/ha): 100
Cocklebur plant response rating (cocklebur; [6]): 70
Wheat plant response rating (wheat; 62 g ai/ha): 0
Plant response rating (0 to 100), Wheat (wheat; Postemergence, 31 g ai/ha): 0
Plant response rating (0 to 100), Wheat (wheat; Postemergence, 62 g ai/ha): 0
Plant response rating, Wheat (wheat; Postemergence, 125 g ai/ha): 0
Plant response rating, Wheat (wheat; Postemergence, 250 g ai/ha): 0
Plant response rating (0 to 100), Wheat (wheat; Preemergence, 250 g ai/ha): 98
Wheat plant response rating (wheat; 125 g ai/ha): 70
Cupgrass, Woolly plant response rating (woolly cupgrass; [4]): 65
Cupgrass, Woolly plant response rating (woolly cupgrass; [5]): 90
Plant response rating (0 to 100), Cupgrass, Woolly (woolly cupgrass; Postemergence, 31 g ai/ha): 0
Plant response rating, Cupgrass, Woolly (woolly cupgrass; Postemergence, 62 g ai/ha): 30
Plant response rating, Cupgrass, Woolly (woolly cupgrass; Postemergence, 125 g ai/ha): 50
Plant response rating, Cupgrass, Woolly (woolly cupgrass; Postemergence, 250 g ai/ha): 50
Plant response rating (0 to 100), Cupgrass, Woolly (woolly cupgrass; Preemergence, 250 g ai/ha): 100
Cupgrass, Woolly plant response rating (woolly cupgrass; [6]): 100
Crabgrass, Large plant response rating (crabgrass; [4]): 70
Crabgrass, Large plant response rating (crabgrass; [5]): 100
Plant response rating (0 to 100), Crabgrass, Large (crabgrass; Postemergence, 31 g ai/ha): 0
Plant response rating, Crabgrass, Large (crabgrass; Postemergence, 62 g ai/ha): 0
Plant response rating, Crabgrass, Large (crabgrass; Postemergence, 125 g ai/ha): 0
Plant response rating, Crabgrass, Large (crabgrass; Postemergence, 250 g ai/ha): 40
Plant response rating (0 to 100), Crabgrass, Large (crabgrass; Preemergence, 250 g ai/ha): 100
Crabgrass, Large plant response rating (crabgrass; [6]): 100
Morningglory plant response rating (morningglory [2]; [4]): 85
Morningglory plant response rating (morningglory [2]; [5]): 100
Plant response rating, Morningglory (morningglory [2]; 62 g ai/ha): 5
Plant response rating, Morningglory (morningglory [2]; 125 g ai/ha): 5
Plant response rating, Morningglory (morningglory [2]; 250 g ai/ha): 30
Plant response rating (0 to 100), Morningglory (morningglory [2]; Preemergence, 250 g ai/ha): 100
Morningglory plant response rating (morningglory [2]; [6]): 100
Ryegrass, Italian plant response rating (Italian ryegrass; 62 g ai/ha): 50
Plant response rating (0 to 100), Ryegrass, Italian (Italian ryegrass; Postemergence, 31 g ai/ha): 0
Plant response rating (0 to 100), Ryegrass, Italian (Italian ryegrass; Postemergence, 62 g ai/ha): 0
Plant response rating, Ryegrass, Italian (Italian ryegrass; Postemergence, 125 g ai/ha): 0
Plant response rating, Ryegrass, Italian (Italian ryegrass; Postemergence, 250 g ai/ha): 0
Plant response rating (0 to 100), Ryegrass, Italian (Italian ryegrass; Preemergence, 250 g ai/ha): 100
Ryegrass, Italian plant response rating (Italian ryegrass; 125 g ai/ha): 50
Kochia plant response rating (kochia; [4]): 100
Kochia plant response rating (kochia; [5]): 100
Plant response rating (0 to 100), Kochia (kochia; Postemergence, 31 g ai/ha): 0
Plant response rating, Kochia (kochia; Postemergence, 62 g ai/ha): 0
Plant response rating, Kochia (kochia; Postemergence, 125 g ai/ha): 5
Plant response rating, Kochia (kochia; Postemergence, 250 g ai/ha): 5
Plant response rating (0 to 100), Kochia (kochia; Preemergence, 250 g ai/ha): 100
Kochia plant response rating (kochia; [6]): 100
Sunflower plant response rating ([3]; 62 g ai/ha): 5
Plant response rating (0 to 100), Sunflower ([3]; Preemergence, 250 g ai/ha): 100
Sunflower plant response rating ([3]; 125 g ai/ha): 80
Plant response rating (0 to 100), Soybean (soybean; Postemergence, 31 g ai/ha): 40
Plant response rating (0 to 100), Soybean (soybean; Postemergence, 62 g ai/ha): 50
Plant response rating, Soybean (soybean; Postemergence, 125 g ai/ha): 50
Plant response rating, Soybean (soybean; Postemergence, 250 g ai/ha): 50
Plant response rating (0 to 100), Soybean (soybean; Preemergence, 250 g ai/ha): 70
Soybean plant response rating (soybean; [6]): 50
Foxtail, Green plant response rating (green foxtail; [4]): 100
Foxtail, Green plant response rating (green foxtail; [5]): 100
Plant response rating (0 to 100), Foxtail, Green (green foxtail; Postemergence, 31 g ai/ha): 0
Plant response rating, Foxtail, Green (green foxtail; Postemergence, 62 g ai/ha): 0
Plant response rating, Foxtail, Green (green foxtail; Postemergence, 125 g ai/ha): 20
Plant response rating, Foxtail, Green (green foxtail; Postemergence, 250 g ai/ha): 50
Plant response rating (0 to 100), Foxtail, Green (green foxtail; Preemergence, 250 g ai/ha): 100
Foxtail, Green plant response rating (green foxtail; [6]): 100
